Test results taken from patent US8476288B2, “Salts 756” (AstraZeneca AB, priority 2009, dated 2013).
Where a name gives a salt, the structure may show the parent alone.

Columns and labels:
Type in all cases: physicochemical
[1] = Dynamic vapour sorption (DVS) hygroscopicity; settings: at 80% relative humidity, weight change from 0% RH to 80% RH in second DVS cycle
Description: DVS analysis was performed using an SMS Dynamic Vapour Sorption DVS-Advantage instrument. The solid sample (approximately 1-5 mg) was placed into a platinum sample holder and the weight of the sample was recorded during a dual cycle step method (40 to 90 to 0 to 90 to 0% relative humidity (RH), in steps of 10% RH).
The responses of the mono-fumaric acid salt and the difumaric acid salt (Examples 15 and 19) to changes in humidity were investigated using DVS. The hygroscopicity was calculated as the relative change in weight of the sample between 0% RH at the start of the second cycle and 80% RH during the increase of humidity in the second cycle.
The hygroscopicity of a sample is dependent on factors in addition to the inherent properties of the pure solid form itself, for example the purity and the crystallinity of the sample will have some impact on the result.

[2] = Salt storage stability at 40° C. and 75% relative humidity (HPLC for acid degradation product of Formula (A)); settings: stored under high temperature and humidity, for example 40° C. and 75% relative humidity
Description: The stability of the stability of the mono-saccharin (2 different batches), mono-trans-cinnamic acid, mono-succinic acid, mono-benzoic acid, difumaric acid, dixinafoic acid (di-1-hydroxy-2-naphthoic acid) and disaccharin salts of Compound (I) when stored at 40° C. and 75% relative humidity was measured as follows.
Approximately 30 mg of each salt was weighted into 4 mL screw cap vials, the vials closed and stored at 40° C./75% relative humidity with constant control of the environmental conditions. For every time point the samples were removed from the storage facility and analysed by HPLC for the presence of the acid degradation product of the Formula (A): […]
The HPLC analysis was performed using the following method:
A sample solution was prepared at approximately 0.1 to 0.2 mg/mL in the sample diluent, 0.03% trifluoroacetic acid in 50/50 v/v acetonitrile/water, using sonication as required. The following chromatographic conditions were applied: […]

[3] = Salt/lactose monohydrate blend storage stability at 40° C. and 75% relative humidity; settings: mixtures of salt with lactose monohydrate; 40° C./75% relative humidity
Description: The storage stability of blends of lactose monohydrate with the mono-saccharin, mono-benzoic acid, difumaric acid and disaccharin salts of Compound (I) when stored at is 40° C. and 75% relative humidity was measured as follows.
Approximately 5 grams of each salt were micronised using a 1″ jet mill (MC One, Jetpharma, Balerna, Switzerland) with Nitrogen as the flow gas.
10 g of bulk lactose blend of each salt was prepared by the following method:
Micronised lactose monohydrate (9800 mg) was added to a 60 ml clear glass bottle. To this was added the micronised salt of compound (I) (200 mg) and a rubber stopper and aluminium screw cap used to close the bottle.
The bottle containing the salt and lactose monohydrate was placed in a trembling blender (Turbula T2C, W. Bachofen, Basel, Switzerland) blending vessel and the mixture blended for 10 minutes on speed 1 (30 rpm). A sample (2 g) of the lactose/salt blend was removed. The remaining of lactose/salt blend (8 g) was placed in a stability suite (controlled environmental conditions) at 40° C./75% relative humidity. The sample was temporarily removed from the storage facility for analysis. For each analysis 50 mg of the lactose/salt blend were dissolved in the sample diluents and analysed by HPLC for the compound of Formula (A) as described above in Example 23.

Row | Compound | moisture uptake (hygroscopicity) [1] | solid state chemical stability on storage [2] | stability in the presence of lactose monohydrate [3] | moisture uptake (hygroscopicity) ([1]; listed as difumaric acid salt of Compound (I))
1 | CCCCCNc1nc(N)nc(C)c1Cc1ccc(CC(=O)OCCCCN(C)C)cc1.O=C(O)/C=C/C(=O)O [Example 15, 4-(Dimethylamino)butyl 2-(4-((2-amino-4-methyl-6-(pentylamino)pyrimidin-5-yl)methyl)phenyl)acetate fumaric acid salt] | more than 2 % w/w |  |  | 
2 | CCCCCNc1nc(N)nc(C)c1Cc1ccc(CC(=O)OCCCCN(C)C)cc1 [disaccharin salt of Compound (I)] |  | good solid state chemical stability | particularly stable in the presence of lactose monohydrate | 
3 | CCCCCNc1nc(N)nc(C)c1Cc1ccc(CC(=O)OCCCCN(C)C)cc1.O=C(O)c1ccccc1 [Example 1, 4-(Dimethylamino)butyl 2-(4-((2-amino-4-methyl-6-(pentylamino)pyrimidin-5-yl)methyl)phenyl)acetate benzoic acid salt] |  | good solid state chemical stability |  | 
4 | CCCCCNc1nc(N)nc(C)c1Cc1ccc(CC(=O)OCCCCN(C)C)cc1.O=C(O)/C=C/C(=O)O [Example 19, 4-(Dimethylamino)butyl 2-(4-((2-amino-4-methyl-6-(pentylamino)pyrimidin-5-yl)methyl)phenyl)acetate difumaric acid salt] |  | good solid state chemical stability | particularly stable in the presence of lactose monohydrate | 0.2-2 % w/w
